Results taken from PMC4770093, “The role of kinetic context in apparent biased agonism at GPCRs” (Nature Communications, 2016).
Several values for one entry are separate records, joined by “and”; a condition that tells them apart may be missing. Equal values may be shown once. Read-outs that look alike come from different tables or passages of the source.

Tests used:
Format in all cases: cell-based
Design in all cases: expressed in transfected cells
D2LR [1] = target: T1, D2LR (Homo sapiens, UniProt P14416); assay: ERK1/2 phosphorylation assay (Alphascreen SureFire); settings: for Log(τ/KA) pERK1/2 / ΔLog(τ/KA) pERK1/2: 5 minute timepoint; for Log(τ/KA) pERK1/2: Flp-In-CHO-D2LR; for ΔLog(τ/KA) pERK1/2: dopamine as reference agonist; for alpahscreen assay to detect pERK1/2, counts: agonist 10 μM (cariprazine 1 μM), single experiments n=1 to n=4
Experimental: ERK1/2 phosphorylation was measured using the Alphascreen SureFire ERK kit (PerkinElmer, Waltham, USA). Cells were seeded into 96-well plates at a density of 50,000 cells per well. After 5–7 h, cells were washed with PBS and incubated in serum-free DMEM overnight before assaying. Dose–response experiments were performed for each ligand at 37 °C in the presence of 0.1% ascorbic acid. […] The plate was shaken for 5 min at room temperature (RT) before transferring 5 μl of the lysates to a white 384-well Proxiplate (PerkinElmer, Waltham, USA). […] Plates were read using a Fusion-TM plate reader (PerkinElmer, Waltham, USA).

D2LR [2] = target: T1, D2LR; assay: GαoB G protein activation (BRET); settings: for Emax Gao / Emax: relative to the maximal response of ropinirole; for change in potency over time in the GαoB activation assay: time points from 2 to 90 min;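 as to all read-outs here: Flp-In-CHO cells stably expressing D2LR, transiently transfected, agonist-stimulated in HBSS at 37 °C, net BRET read after coelenterazine, vehicle control subtracted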
Experimental: G protein activation. Flp-In-CHO cells stably expressing the D2LR were seeded at a density of 2,000,000 cells per 10-cm dish and were transfected the following day using polyethylenimine as the transfection reagent. […] Twenty-four hours after transfection, the cells were plated into 96-well CulturPlates (PerkinElmer) and grown overnight. The cells were equilibrated in Hank's balanced salt solution at 37 °C before starting the experiment. The cells were stimulated with the agonists for the indicated timeframes when the BRET readings were captured. Coelenterazine (Promega) was added at a final concentration of 5 μM at least 3 min before measurement. […] Net BRET was determined by subtraction of the vehicle control from the agonist-induced response.

D2LR [3] = target: T1, D2LR; assay: xCELLigence cellular impedance (CI) assay; settings: for Emax CI / Emax: relative to the maximal response of ropinirole
Experimental: Changes in CI on ligand stimulation were measured using the xCELLigence system (Roche Applied Science). The baseline cell index of each well of a 96-well E-plate was measured in the presence of growth medium before cell seeding. Cells were seeded at a density of 20,000 cells per well and grown for 16–20 h followed by 4 h serum starvation. Cells were treated with the ligands and the cell index values were obtained immediately after ligand stimulation every 15 s for a total time of 90 min. The retrieved cell index values were then normalized by dividing the cell index at the time of ligand addition followed by subtraction of the vehicle control at each time point.

D2LR [4] = target: T1, D2LR; assay: Quantification of biased agonism between pathways (operational model, LogBias)
Excerpt: where Top and Bottom represent the maximal and minimal asymptote of the dose–response curve, [A] is the molar concentration of agonist and EC50 is the molar concentration of agonist required to give a response half way between bottom and top. Dose–response data were fitted to the following form of the operational model of agonism[12] to allow the quantification of biased agonism
where Em is the maximal possible response of the system, Basal is the basal level of response, KA represents the equilibrium dissociation constant of the agonist (A) and τ is an index of the signalling efficacy of the agonist that is defined as RT/KE, where RT is the total number of receptors and KE is the coupling efficiency of each agonist-occupied receptor, and n is the slope of the transducer function that links occupancy to response. The analysis assumes that the transduction machinery used for a given cellular pathway are the same for all agonists, such that the Em and transducer slope (n) are shared between agonists. Data for all compounds for each pathway were fit globally, to determine values of KA and τ. Biased agonism was quantified as previously described. […] The relative bias can then be calculated for each agonist at the two different signalling pathways by subtracting the Δlog(τ/KA) of one pathway from the other to give a ΔΔlog(τ/KA) value, which is a measure of bias. […] All affinity (pKi or pKA), potency (pEC50) and transduction ratio (log(τ/KA)) parameters were estimated as logarithms. When fold changes in bias are described, this was calculated by converting values of ΔΔlog(τ/KA) to the corresponding antilog value. […] Thus, as the application of t-tests and analyses of variance assume Gaussian distribution, estimating the parameters as logarithms allows valid statistical comparison. All results are expressed as the mean±s.e.m. As such, we performed a Brown–Forsythe test (Graphpad prism 6) to assure ourselves of equal variance when such parameters are compared.

[5] = 5 minute timepoint, Flp-In-CHO-D2LR
[6] = 5 minute timepoint, dopamine as reference agonist

T1 sequence (P14416 whole entry): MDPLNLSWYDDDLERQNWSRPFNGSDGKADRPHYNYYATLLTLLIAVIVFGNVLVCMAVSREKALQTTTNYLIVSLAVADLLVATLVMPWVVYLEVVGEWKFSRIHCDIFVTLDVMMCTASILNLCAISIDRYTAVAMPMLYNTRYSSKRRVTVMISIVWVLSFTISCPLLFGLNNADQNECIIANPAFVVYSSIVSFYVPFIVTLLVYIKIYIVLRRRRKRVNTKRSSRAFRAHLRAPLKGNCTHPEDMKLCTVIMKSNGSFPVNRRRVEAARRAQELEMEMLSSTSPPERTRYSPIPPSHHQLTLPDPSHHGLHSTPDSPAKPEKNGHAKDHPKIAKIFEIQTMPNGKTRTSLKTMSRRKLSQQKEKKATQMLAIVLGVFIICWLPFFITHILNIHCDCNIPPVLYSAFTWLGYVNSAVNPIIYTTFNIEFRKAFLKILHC

## CN1CCN(c2cccc3[nH]c(=O)oc23)CC1 [Pardoprunox, pardoprunox]
D2LR [1]
  Log(τ/KA) pERK1/2: 9.06 ± 0.08
  ΔLog(τ/KA) pERK1/2: 0.50 ± 0.10
D2LR [1]; time 7.5 mins
  alpahscreen assay to detect pERK1/2, counts: 13.2699 counts and 16.7995 counts and 15.0808 counts and 9.987 counts
D2LR [1]; time 10 mins
  alpahscreen assay to detect pERK1/2, counts: 12.5176 counts and 12.8139 counts and 9.935 counts and 7.3291 counts
D2LR [1]; time 20 mins
  alpahscreen assay to detect pERK1/2, counts: 2.97 counts and 3.103 counts and 2.735 counts and 1.953 counts
D2LR [2]; 2 min
  pEC50 Gao: 7.78
  Emax Gao: 82 ± 4.5
D2LR [2]; 5 min
  pEC50 Gao: 7.77
  Emax Gao: 79 ± 4.3
D2LR [2]; [5]
  Log(τ/KA) GαoB activation: 7.70 ± 0.10
D2LR [2]; [6]
  ΔLog(τ/KA) GαoB activation: 0.45 ± 0.13
D2LR [2]; 10 min
  pEC50 Gao: 8.00
  Emax Gao: 76 ± 3.2
D2LR [2]; 15 min
  pEC50 Gao: 8.21
  Emax Gao: 81 ± 2.8
D2LR [2]; 30 min
  pEC50 Gao: 8.70
  Emax Gao: 84 ± 3.1
D2LR [2]; 45 min
  pEC50 Gao: 8.71
  Emax Gao: 85 ± 3.1
D2LR [2]; 60 min
  pEC50 Gao: 8.64
  Emax Gao: 86 ± 2.7
D2LR [2]; 75 min
  pEC50 Gao: 8.34
  Emax Gao: 80 ± 4.9
D2LR [2]; 90 min
  pEC50 Gao: 8.58
  Emax Gao: 87 ± 2.5
D2LR [2]
  change in potency over time in the GαoB activation assay: sixfold
D2LR [3]; 2 min
  pEC50 CI: 9.30
  Emax CI: 75 ± 3.6
D2LR [3]; 5 min
  pEC50 CI: 9.41
  Emax CI: 76 ± 2.7
D2LR [3]; [5]
  Log(τ/KA) Cellular impedance: 9.29 ± 0.06
D2LR [3]; [6]
  ΔLog(τ/KA) Cellular impedance: 0.74 ± 0.07
D2LR [3]; 10 min
  pEC50 CI: 9.22
  Emax CI: 70 ± 2.2
D2LR [3]; 15 min
  pEC50 CI: 9.20
  Emax CI: 67 ± 2.5
D2LR [3]; 30 min
  pEC50 CI: 9.06
  Emax CI: 62 ± 2.9
D2LR [3]; 45 min
  pEC50 CI: 9.02
  Emax CI: 59 ± 2.4
D2LR [3]; 60 min
  pEC50 CI: 8.95
  Emax CI: 57 ± 2.2
D2LR [3]; 75 min
  pEC50 CI: 8.87
  Emax CI: 54 ± 2.1
D2LR [3]; 90 min
  pEC50 CI: 8.80
  Emax CI: 52 ± 2.0
D2LR [4]; [6]
  LogBias CI – pERK1/2: 0.24 ± 0.12
  LogBias Gαi1 – CI: 0.19 ± 0.18
  LogBias Gαi1 – GαoB: 0.48 ± 0.21
  LogBias Gαi1 – cAMP: 0.35 ± 0.17
  LogBias Gαi1 – pERK1/2: 0.43 ± 0.19
  LogBias GαoB – CI: -0.29 ± 0.15
  LogBias GαoB – cAMP: -0.13 ± 0.15
  LogBias GαoB – pERK1/2: -0.05 ± 0.16
  LogBias cAMP – CI: -0.16 ± 0.10
  LogBias cAMP – pERK1/2: 0.08 ± 0.12
  LogBias β-arr2 – CI: -0.28 ± 0.33
  LogBias β-arr2 – Gαi1: -0.47 ± 0.36
  LogBias β-arr2 – GαoB: 0.01 ± 0.34
  LogBias β-arr2 – cAMP: -0.12 ± 0.33
  LogBias β-arr2 – pERK1/2: -0.04 ± 0.33

## CCCN(CCC)CCc1cccc2c1CC(=O)N2 [Ropinirole, ropinirole]
D2LR [1]
  Log(τ/KA) pERK1/2: 8.44 ± 0.05
  ΔLog(τ/KA) pERK1/2: -0.12 ± 0.07
D2LR [1]; time 5 mins
  alpahscreen assay to detect pERK1/2, counts: 22.2889 counts and 25.6765 counts and 28.0112 counts
D2LR [1]; time 7.5 mins
  alpahscreen assay to detect pERK1/2, counts: 28.0112 counts and 22.6774 counts and 25.7734 counts
D2LR [1]; time 10 mins
  alpahscreen assay to detect pERK1/2, counts: 21.5421 counts and 16.2572 counts and 11.748 counts and 11.8417 counts
D2LR [1]; time 20 mins
  alpahscreen assay to detect pERK1/2, counts: 4.739 counts and 4.229 counts and 3.491 counts and 4.291 counts
D2LR [1]; time 30 mins
  alpahscreen assay to detect pERK1/2, counts: 2.723 counts and 2.242 counts and 2.289 counts and 2.713 counts
D2LR [2]
  Log(τ/KA) GαoB activation: 7.08 ± 0.08
  pEC50 Gao: 7.33
  ΔLog(τ/KA) GαoB activation: -0.16 ± 0.11
  change in potency over time in the GαoB activation assay: no change in potency
D2LR [2]; 2 min
  EC50: 0.107 µM
  Emax: 100%
D2LR [2]; 5 min
  EC50: 0.0955 µM
  Emax: 100%
D2LR [2]; 10 min
  EC50: 0.0676 µM
  Emax: 100%
D2LR [2]; 15 min
  Emax: 100%
D2LR [2]; 30 min
  EC50: 0.0309 µM
  Emax: 100%
D2LR [2]; 45 min
  EC50: 0.0417 µM
  Emax: 100%
D2LR [2]; 60 min
  EC50: 0.0513 µM
  Emax: 100%
D2LR [2]; 75 min
  EC50: 0.0398 µM
  Emax: 100%
D2LR [2]; 90 min
  EC50: 0.0437 µM
  Emax: 100%
D2LR [3]
  Log(τ/KA) Cellular impedance: 8.32 ± 0.05
  ΔLog(τ/KA) Cellular impedance: -0.23 ± 0.06
D2LR [3]; 2 min
  EC50: 0.00468 µM
  Emax: 100%
D2LR [3]; 5 min
  EC50: 0.00513 µM
  Emax: 100%
D2LR [3]; 10 min
  EC50: 0.00794 µM
  Emax: 100%
D2LR [3]; 15 min
  EC50: 0.0107 µM
  Emax: 100%
D2LR [3]; 30 min
  EC50: 0.017 µM
  Emax: 100%
D2LR [3]; 45 min
  EC50: 0.0195 µM
  Emax: 100%
D2LR [3]; 60 min
  EC50: 0.024 µM
  Emax: 100%
D2LR [3]; 75 min
  EC50: 0.0282 µM
  Emax: 100%
D2LR [3]; 90 min
  EC50: 0.0347 µM
  Emax: 100%
D2LR [4]
  LogBias CI – pERK1/2: -0.11 ± 0.10
  LogBias Gαi1 – pERK1/2: -0.31 ± 0.15
  LogBias GαoB – pERK1/2: -0.04 ± 0.14
  LogBias cAMP – pERK1/2: -0.27 ± 0.10
  LogBias β-arr2 – pERK1/2: 0.26 ± 0.21
D2LR [4]; [6]
  LogBias Gαi1 – CI: -0.19 ± 0.15
  LogBias Gαi1 – GαoB: -0.26 ± 0.18
  LogBias Gαi1 – cAMP: -0.03 ± 0.15
  LogBias GαoB – CI: 0.07 ± 0.13
  LogBias GαoB – cAMP: 0.23 ± 0.13
  LogBias cAMP – CI: -0.16 ± 0.09
  LogBias β-arr2 – CI: 0.38 ± 0.21
  LogBias β-arr2 – Gαi1: 0.57 ± 0.24
  LogBias β-arr2 – GαoB: 0.31 ± 0.23
  LogBias β-arr2 – cAMP: 0.54 ± 0.21
